Here are results for four compounds from ChEMBL document CHEMBL1201862, “PubChem BioAssay data set” (2004).

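Each compound was tested at five concentrations against cells in 96-well plates for 48 hours. Here, GI50 denotes the concentration required for 50% inhibition of growth.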 The source made the active and inactive calls. Cut-off read from the data, not from the text of the source: active = GI50 up to about 1.1 µM and inactive = higher. A value given as a limit tells only on which side of the number the result lay.

What all share (assay): inhibition of tumour cell growth, NCI panel, 48 h
For experiment [1], the system named is M14.
In experiment [2] the test system is HCT-15.
For experiment [3], the system named is MDA-N.
In experiment [4] the test system is TK-10.
In experiment [5] the test system is SN12C.
Experiment [6] concerns SNB-75.
Experiment [7] deals with U-251.
In experiment [8] the test system is Malme-3M.
The test system of experiment [9] is SF-268.
For experiment [10], the system named is OVCAR-3.
Experiment [11] relates to SF-539.
Experiment [12] concerns HCT-116.
Experiment [13] has as its system Hs-578T.
Experiment [14] relates to UACC-257.
For experiment [15], the system named is HL-60.
Experiment [16] deals with A498.
The subject of experiment [17] is SK-OV-3.
In experiment [18] the test system is OVCAR-4.
For experiment [19], the system named is HOP-92.
For experiment [20], the system named is NCI/ADR-RES.

With `Cc1cc(O)c2c(c1O)C(=O)C1=C(C2=O)C(=O)C2C(O)C1C1C(O)CC(O)=C3C(=O)c4c(O)cc(C)c(O)c4C(=O)C321` (configuration not stated), the GI50 in experiment [1] was 2.3 µM (inactive); in experiment [2], 2.04 µM; in experiment [3] it was 1.44 µM (inactive); in experiment [4] it was 3.14 µM (inactive); in experiment [5], 2.12 µM (inactive); in [6], 1.03 µM (active). The GI50 is 0.658 µM (active) in experiment [7]; 0.982 µM (active) in experiment [8]; 2.28 µM (inactive) in experiment [9]; 1.3 µM (inactive) in [10]; 1.94 µM (inactive) in experiment [11]; 0.541 µM (active) in [12]. Moreover, the GI50 is 0.553 µM (active) in experiment [13]; 0.789 µM (active) in experiment [14]; 1.1 µM (active) in experiment [15]; 1.27 µM (inactive) in experiment [16]; 2.24 µM (inactive) in experiment [17]; 6.04 µM (inactive) in experiment [18].
As to `COC(=O)C1=C(O)C(C(=O)OC)[C@@]2(O)[C@@H](C(=O)OC)[C@H](C)[C@@H](C)[C@@H]1[C@@H]2C(=O)OC` (some centres not stated), the GI50 in [1] was 67.5 µM (inactive); in experiment [2], 41.5 µM; in experiment [3], 22 µM (inactive); in experiment [4], > 100 µM (inactive); in [5], > 100 µM (inactive); in [6], 57.7 µM (inactive). The GI50 was 86.5 µM (inactive) in experiment [7]; 83.2 µM (inactive) in experiment [8]; > 100 µM (inactive) in experiment [9]; 27 µM (inactive) in [10]; 35.6 µM (inactive) in experiment [11]; 66.1 µM (inactive) in experiment [12]. In addition, the GI50 is 27.4 µM (inactive) in experiment [13]; 46.6 µM (inactive) in experiment [14]; 45.7 µM (inactive) in experiment [15]; > 100 µM (inactive) in experiment [16]; 49.4 µM (inactive) in experiment [17].
`COC1(OC)C2C=CC1C([C@](C)(N)CO)C2` (some centres not stated): the GI50 in experiment [1], in experiment [19], in [3], in [4], in experiment [5] and in [6] was > 100 µM (inactive) each time. Besides, the GI50 in experiment [7], in experiment [8], in [9], in [10], in experiment [11] and in experiment [12] was > 100 µM (inactive) each time. Also, the GI50 in experiment [13], in experiment [14], in experiment [15], in experiment [16], in experiment [17] and in experiment [18] was > 100 µM (inactive) in each case.
Take `Cc1c2c(c(C)c3c4c(oc13)CCCC4)C=NCC2`: the GI50 was 20.2 µM (inactive) in experiment [1]; 11.5 µM (inactive) in experiment [19]; 13.9 µM in experiment [2]; 12.1 µM (inactive) in [4]; 15.8 µM (inactive) in experiment [5]; 15.4 µM (inactive) in [20]. Besides, the GI50 in [6] was 15.8 µM (inactive); in [7], 13.1 µM (inactive); in experiment [8], 16 µM (inactive); in [9], 20.2 µM (inactive); in experiment [10], 14.9 µM (inactive); in experiment [11], 15.2 µM (inactive). Also, the GI50 in experiment [12] was 14.9 µM (inactive); in [13], 17 µM (inactive); in experiment [14], 14.7 µM (inactive); in experiment [15], 19.7 µM (inactive); in experiment [16] it was 17 µM (inactive); in experiment [17] it was 20.7 µM (inactive). In addition, the GI50 in [18] was 22.3 µM (inactive).
